We go through six molecules from US20120010281A1, “ANTIMICROBIAL AND ANTI[…]” (THE TRUSTEES OF PRINCETON UNIVERSITY, priority 2010, published 2012).

This assay relates to M. tuberculosis mc^27000. Kind of assay: microbe, parasite or virus in culture. Format: cell-based. Particulars: for MIC: Mycobacterium tuberculosis, 120 h, range of assayed concentrations that bounds the mean of three independent determinations, read-out: mc^27000 7H9 MIC; for inhibitory activity against Mtb mc^27000 (in words): comment on the Table 1 MIC values, relative to tiamulin.

≈ marks a conversion by molar mass, not a printed value. A value given as a limit tells only on which side of the number the result lay.

As for `C=CC1(C)C[C@@H](OC(=O)CO)C2(C)C(C)CCC3(CCC(=O)C32)[C@@H](C)[C@@H]1O` (some centres unmarked) [Pleuromutilin (1), Pleuromutilin, reference compound], the MIC is 25 to 50 µg/mL (≈ 66 to 132 µM) and the “inhibitory activity against Mtb mc^27000 (in words)” value (shortened to “inhibitory activity”) is “low micromolar MIC values”. With `C=C1C[C@@H](OC(=O)CSCCN(CC)CC)C2CCCC3(CCC(=O)C23)C[C@H]1O` (some centres unmarked) [Compound 20c], the MIC lay in the range of 12 to 25 µg/mL (≈ 28.3 to 59 µM) and the “inhibitory activity” value was “compares favorably to tiamulin”. In the case of `C=C[C@]1(C)C[C@@H](OC(=O)CSCCN(CC)CC)C2(C)C(C)CCC3(CCC(=O)C32)[C@@H](C)[C@@H]1O` (some centres unmarked) [tiamulin (3), tiamulin, reference compound], the MIC lay within 12 to 25 µg/mL (≈ 24.3 to 50.6 µM) and the “inhibitory activity” value is “low micromolar MIC values”. As for `CCN(CC)CCSCC(=O)O[C@H]1C/C(C)=C\CC23CCCC1C2C(=O)CC3` (some centres unmarked) [Compound 25], the MIC was found to be 50 µg/mL (≈ 123 µM) and the “inhibitory activity” value is reported as “moderate, yet significant, level of activity”. `C=C1C[C@@H](OC(=O)CO)C2CCCC3(CCC(=O)C23)C[C@@H]1O` (some centres unmarked) [Compound 4]: the MIC is > 200 µg/mL.

In the case of `C=C1C[C@@H](OC(=O)CSCCN(CC)CC)C2CCCC3(CCC(=O)C23)C[C@@H]1O` (some centres unmarked) [Compound 20a], the MIC fell in the range of 50 to 100 µg/mL (≈ 118 to 236 µM) and the “inhibitory activity” value is “attenuated activity”.
